In patent publication US20220249679A1 (Mitsubishi Tanabe Pharma Corporation, priority 2018, published 2022):

Assays:
cyno CD138 = test: FACS binding to Expi293 cells transfected with cyno CD138; design: species or system cynomolgus monkey; conditions: 3-fold dilutions from 33.3 μg/mL
Experimental: (§1) 12P16F6 hIgG1 or 13P30A7 hIgG1 were tested for cross-reactivity to cynomolgus monkey CD138. Antibodies that cross-react with CD138 from cynomolgus monkey (cyno) have an advantage that they can be tested for toxicity in this strain of non-human primate prior to conducting efficacy trials. Briefly, a vector directing the cell-surface expression of human CD138 or cyno CD138 was transfected in Expi293 cells. Binding of 12P16F6 hIgG1 and 13P30A7 hIgG1 to transfected Expi293 cells was tested at 3-fold dilutions starting at 33.3 μg/mL.

human CD138 = biological target: T1, human CD138 (Homo sapiens, UniProt P18827); test: FACS binding to Expi293 cells transfected with human CD138; conditions: 3-fold dilutions from 33.3 μg/mL
T1 sequence (P18827 23-310): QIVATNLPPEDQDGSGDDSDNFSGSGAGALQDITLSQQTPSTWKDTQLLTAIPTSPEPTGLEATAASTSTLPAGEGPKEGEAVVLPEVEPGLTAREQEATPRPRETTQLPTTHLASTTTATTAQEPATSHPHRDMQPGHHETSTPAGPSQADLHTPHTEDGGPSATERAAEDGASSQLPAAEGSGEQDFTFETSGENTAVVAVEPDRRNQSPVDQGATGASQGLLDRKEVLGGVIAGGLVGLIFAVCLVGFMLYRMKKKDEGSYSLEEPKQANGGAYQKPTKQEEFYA
Experimental: as §1

Sequence of cyno CD138 (as listed by the source): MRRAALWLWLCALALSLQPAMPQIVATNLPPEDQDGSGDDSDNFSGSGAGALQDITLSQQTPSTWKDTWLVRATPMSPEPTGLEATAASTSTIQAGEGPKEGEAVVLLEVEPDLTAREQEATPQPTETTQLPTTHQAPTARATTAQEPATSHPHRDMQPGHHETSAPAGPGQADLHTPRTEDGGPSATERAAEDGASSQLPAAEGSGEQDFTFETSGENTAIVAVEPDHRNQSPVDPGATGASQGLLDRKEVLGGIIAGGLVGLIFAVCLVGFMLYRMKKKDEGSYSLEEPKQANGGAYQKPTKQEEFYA

With Secukinumab [reference compound] the “binding to cynomolgus CD138 expressing cells” value (cyno CD138) was “little or no specific binding” and the “binding to human CD138 expressing cells” value (human CD138) was “little or no specific binding”.
